Experimental data published in patent US20090253709A1 (NATIONAL DEFENSE MEDICAL CENTER, priority 2008, published 2009).
Read-outs that look alike come from different tables or passages of the source.

Tests used:
MTT assay in H1299 cells = type: cell-based; conditions: human, H1299 cells (H1299/PhTERT-driven SEAP reporter system), H1299, read-out: MTT (Inhibition μM ± SD); for viability at 24 h, 1 µM: compound concentration 1 μM; for viability at 24 h, 10 µM: compound concentration 10 μM; for viability at 24 h, 100 µM: compound concentration 100 μM
Method: H1299 is a non-small cell lung cancer cell line with telomerase activity. The cell extract of H1299 cell lines can be used for selecting the telomerase activity inhibitors in vitro and the telomerase activity-inhibited substances in vivo. H1299 cell line was incubated with RPMI 1640 medium supplemented with 10% of fetal bovine serum (FBS). A total of 2×10^3 […] cells were seeded in the 96-well cell culture plate, and incubated with DMEM (GIBCO®)/glucose mixture and Medium 199 (GIBCO®)/10% FBS/1 mM sodium pyruvate (GIBCO®)/4 mM L-glutamine (GIBCO®) mixture at a ratio of 4:1 at 37° C. for 24 hours. […] After 48 hours of drug treatment, the cultured medium were collected for performing the analysis of SEAP activity. The cells were washed with 1×PBS once immediately, and the MTT assay was performed to compare the compounds with the relative toxicity or the influence to the proliferation and activity. Mitochondria is the place for cellular respiration, and there are many reductive reactions catalyzed by dehydrogenases. MTT is a water-soluble yellow compound, and the […] will be formed after reduction. This crystal can be dissolved in the organic solvent, and has high absorbance at the wavelength of 570 nm. The higher cellular activity or more cell numbers, the more generated crystal violets. Therefore, the cellular activity and cell number can be obtained by the MTT assay. MTT solution was prepared by dissolving MTT powder in PBS solution to achieve 5 mg/ml, filtrated and stored at 4° C. Lysis buffer contained 20% (w/v) of SDS in 50% of N,N-dimethylformamide (DMF, Riedel-deHaën). After the cells were incubated in the 96-well culture plate, the original medium was discarded, 100 μl of the fresh serum-free medium per well and 25 μl of MTT solution per well were added in respectively, and the cells were further incubated in the CO2 incubator at 37° C. for 4 hours. Then, 100 μl of lysis buffer per well was added in and incubated overnight in the CO2 incubator at 37° C. The absorbance at 570 nm was determined by the ELISA reader. The selection of telomerase inhibitors of the anthraquinone compounds provided in the present invention was performed by the […]-driven SEAP system. SEAP is the communication gene in this drug selection model. The SEAP inhibition was shown as follows. […] Subsequently, the linear slope of absorbance to the measuring time was calculated, and the variance of absorbance at 405 nm per minute was represented and compared with the SEAP-producing result of drug-untreated H1299 cells. In addition, the influence of the cell-treated drug solution to the cellular proliferation and the drug toxicity to the cells were considered, and the cellular growth was evaluated by the MTT assay. The drug-treated cells were analyzed by the SEAP assay and the data analysis of MTT assay at the same time. Both results were compared so as to delete the influence of cell number or the activity to SEAP, and the dose-dependent phenomenon could be anticipated in the range of drug concentration designed by the laboratory. […] Since the chemically-synthetic drugs have colors thereon, the SEAP value of drug-treatment without cells was also determined to be the background value which was deducted while treating with the drugs. The candidate drug for inhibiting telomerase on the hTERT gene expression level was evaluated and anticipated.

hTERT expression = assay: SEAP assay in hTERT-BJ1-PTERT(3.4)-SEAP cells; type: cell-based; conditions: Homo sapiens, read-out: SEAP (Inhibition μM ± SD)
Method: A total of 2×10^3 hTERT-BJ1-PTERT(3.4)-SEAP cells were seeded in the 96-well cell culture plate, and incubated with DMEM (GIBCO®)/glucose mixture and Medium 199 (GIBCO®)/10% FBS/1 mM sodium pyruvate (GIBCO®)/4 mM L-glutamine (GIBCO®) mixture at a ratio of 4:1 at 37° C. for 24 hours. When the cells were attached in the bottom of the well, the seriously-diluted compounds with different concentrations ([…]) were treated with the cells for 48 hours, and the PTERT(3.4)-SEAP cells without drug treatment were being the control. After 48 hours of drug treatment, the cultured medium were collected for performing the analysis of SEAP activity. The cells were washed with 1×PBS once immediately, and the MTT assay was performed to compare the compounds with the relative toxicity or the influence to the proliferation and activity.
The cellular medium after the cellular incubation was transferred into the eppondorf tube, and the activity of endogeneous alkaline phosphatase was inactivated at 65° C. for 10 minutes. After centrification, the mixture was obtained by mixing 50 μl of the supernatant with the equal volume of the SEAP buffer. The mixture and the substrate (120 mM of p-nitrophenylphosphate) were preheated at 37° C. for 10 minutes respectively, and the mixture and the substrate were mixed at a ratio of 1:10 and reacted at 37° C. The absorbance of visible light at 405 nm was determined at the appropriate time intervals, and the enzymatic activity of SEAP was represented by the speed of the increasing absorbance at 405 nm.

[1] = BJ1, compound concentration 1 μM
[2] = BJ1, compound concentration 10 μM
[3] = BJ1, compound concentration 100 μM

Row | Compound | viability at 24 h, 1 µM (MTT assay in H1299 cells) [%] | viability at 24 h, 10 µM (MTT assay in H1299 cells) [%] | viability at 24 h, 100 µM (MTT assay in H1299 cells) [%] | activity at 1 µM (hTERT expression; [1]) [%] | activity at 10 µM (hTERT expression; [2]) [%] | activity at 100 µM (hTERT expression; [3]) [%] | activity at 10 µM (hTERT expression) [%] | activity at 100 µM (hTERT expression) [%] | activity at 1 µM (hTERT expression) [%]
1 | O=C1c2ccc([N+](=O)[O-])cc2C(=O)c2cc([N+](=O)[O-])ccc21 [Compound 1, 2,7-dinitroanthraquinone] | 97 ± 15 | 95 ± 8 | 69 ± 10 | 55 ± 21 | 60 ± 35 | 65 ± 23 |  |  | 
2 | Nc1ccc2c(c1)C(=O)c1cc(N)ccc1C2=O [Compound 2, 2,7-Diaminoanthraquinone] | 90 ± 17 | 80 ± 16 | 65 ± 10 |  |  |  |  |  | 
3 | O=C(CCl)Nc1ccc2c(c1)C(=O)c1cc(NC(=O)CCl)ccc1C2=O [Compound 3, 2,7-bis(chloroacetamido)anthraquinone] | 58 ± 44 | 5 ± 3 | 1 |  |  |  | 69 ± 34 | 135 ± 21 | 
4 | CCN(CC)CC(=O)Nc1ccc2c(c1)C(=O)c1cc(NC(=O)CN(CC)CC)ccc1C2=O [Compound 4, 2,7-Bis[2-(diethylamino)acetamido]anthraquinone] | 101 ± 8 | 47 ± 7 | 25 ± 3 | 26 ± 4 | 131 ± 57 | 116 ± 34 |  |  | 
5 | CCCCNCC(=O)Nc1ccc2c(c1)C(=O)c1cc(NC(=O)CNCCCC)ccc1C2=O [Compound 5, 2,7-Bis[2-(butylamino)acetamido]anthraquinone] | 91 ± 16 | 17 ± 9 | 15 ± 11 | 27 ± 18 | 24 ± 24 | 80 ± 14 |  |  | 
6 | O=C(CN1CCCCC1)Nc1ccc2c(c1)C(=O)c1cc(NC(=O)CN3CCCCC3)ccc1C2=O [Compound 7, 2,7-Bis[2-(piperidino)acetamido]anthraquinone] | 50 ± 16 | 37 ± 15 | 35 ± 11 | 118 ± 16 | 121 ± 3 | 103 ± 5 |  |  | 
7 | CCCNCC(=O)Nc1ccc2c(c1)C(=O)c1cc(NC(=O)CNCCC)ccc1C2=O [Compound 9, 2,7-Bis[2-(propylamino)acetamido]anthraquinone] | 89 ± 15 | 54 ± 11 | 14 ± 10 |  |  |  |  |  | 
8 | CN1CCN(CC(=O)Nc2ccc3c(c2)C(=O)c2cc(NC(=O)CN4CCN(C)CC4)ccc2C3=O)CC1 [Compound 11, 2,7-Bis[2-(N-methylpiperazino)acetamido]anthraquinone] | 90 ± 14 | 71 ± 4 | 37 ± 6 | 61 ± 21 | 68 ± 21 | 97 ± 30 |  |  | 
9 | O=C(CN1CCNCC1)Nc1ccc2c(c1)C(=O)c1cc(NC(=O)CN3CCNCC3)ccc1C2=O [Compound 12, 2,7-Bis[2-(piperazino)acetamido]anthraquinone] | 88 ± 19 | 85 ± 13 | 88 ± 11 |  |  |  |  |  | 
10 | CC(C)CNCC(=O)Nc1ccc2c(c1)C(=O)c1cc(NC(=O)CNCC(C)C)ccc1C2=O [Compound 14, 2,7-Bis[2-(isobutylamino)acetamido]anthraquinone] | 108 ± 8 | 39 ± 10 | 11 ± 5 | 83 ± 5 | 44 ± 2 | 40 ± 3 |  |  | 
11 | O=C(CCCl)Nc1ccc2c(c1)C(=O)c1cc(NC(=O)CCCl)ccc1C2=O [Compound 15, 2,7-Bis(3-chloropropionamido)anthraquinone] | 77 ± 13 | 44 ± 15 | 29 ± 11 |  |  |  |  |  | 
12 | CCCCNCCC(=O)Nc1ccc2c(c1)C(=O)c1cc(NC(=O)CCNCCCC)ccc1C2=O [Compound 17, 2,7-Bis[3-(butylamino)propionamido]anthraquinone] | 82 ± 12 | 52 ± 4 | 14 ± 10 | 88 ± 34 | 95 ± 46 | 111 ± 25 |  |  | 
13 | O=C(CCN1CCCCC1)Nc1ccc2c(c1)C(=O)c1cc(NC(=O)CCN3CCCCC3)ccc1C2=O [Compound 19, 2,7-Bis[3-(piperidino)propionamido]anthraquinone] | 87 ± 15 | 44 ± 7 | 18 ± 9 | 186 ± 47 | 226 ± 51 | 234 ± 20 |  |  | 
14 | CCCNCCC(=O)Nc1ccc2c(c1)C(=O)c1cc(NC(=O)CCNCCC)ccc1C2=O [Compound 21, 2,7-Bis[3-(propylamino)propionamido]anthraquinone] | 80 ± 15 | 50 ± 6 | 13 ± 10 |  | 133 ± 48 | 217 ± 40 |  |  | 
15 | CCNCCC(=O)Nc1ccc2c(c1)C(=O)c1cc(NC(=O)CCNCC)ccc1C2=O [Compound 22, 2,7-Bis[3-(ethylamino)propionamido]anthraquinone] | 86 ± 10 | 59 ± 3 | 34 ± 7 |  |  |  | 217 ± 133 | 97 ± 87 | 211 ± 38
16 | CN1CCN(CCC(=O)Nc2ccc3c(c2)C(=O)c2cc(NC(=O)CCN4CCN(C)CC4)ccc2C3=O)CC1 [Compound 23, 2,7-Bis[3-(N-methylpiperazino)propionamido]anthraquinone] | 95 ± 18 | 80 ± 15 | 39 ± 6 |  | 138 ± 115 | 232 ± 66 |  |  | 
17 | O=C(CCN1CCNCC1)Nc1ccc2c(c1)C(=O)c1cc(NC(=O)CCN3CCNCC3)ccc1C2=O [Compound 24, 2,7-Bis[3-(piperazino)propionamido]anthraquinone] | 97 ± 8 | 94 ± 8 | 102 ± 13 | 163 ± 22 | 118 ± 26 | 131 ± 29 |  |  | 
18 | O=C(CCCCl)Nc1ccc2c(c1)C(=O)c1cc(NC(=O)CCCCl)ccc1C2=O [Compound 25, 2,7-Bis(4-chlorobutyramido)anthraquinone] | 84 ± 18 | 40 ± 2 | 22 ± 2 | 13 ± 58 | 42 ± 45 | 75 ± 16 |  |  | 
19 | CCC(=O)Nc1ccc2c(c1)C(=O)c1cc(NC(=O)CC)ccc1C2=O [Compound 27, 2,7-Bis(propionamido)anthraquinone] | 70 ± 25 | 38 ± 17 | 35 ± 15 | 78 ± 10 | 64 ± 8 | 51 ± 8 |  |  | 
